# Literature values, collected in patent US20050232957A1, “Compositions and methods for moisturizing skin” (priority 2004, published 2005).
# Conditions: person, one month after starting treatment
compound,measurement,value
CS(=O)(=O)c1ccc(C2=C(c3ccccc3)C(=O)OC2)cc1 [rofecoxib],aquagenic wrinkling of the palms (AWP),developed AWP
